{
  "source": "patent US10450288B2",
  "about": "“Hydroxy formamide derivatives and their use” (GLAXOSMITHKLINE INTELLECTUAL PROPERTY (NO.2) LIMITED, priority 2014, dated 2019)",
  "data": [
    {"tested_on": "human cardiac fibroblasts", "assay": "Cell-based inhibition assay of generation of procollagen I C-terminal propeptide (PICP), PICP ELISA", "conditions": "Cardiac fibroblast; human cardiac fibroblasts, crowding media, 24 to 48 hr, PICP ELISA of media; read-out: pIC50, PICP cellular inhibition assay (converted)", "procedure": "(§1) Cell-Based Inhibition Assay of Generation of Procollagen I C-Terminal Propeptide (PICP) and Mature Collagen:\n(§2) An adaptation of the collagen deposition assay described by Chen, C. Z. C., et al., British Journal of Pharmacology, 2009, 158, 1196-1209 was used to examine effect of compounds on procollagen I processing and collagen deposition. In the adapted assay, human cardiac fibroblasts were utilized. Processing of procollagen I was determined by a PICP ELISA assay and deposition of mature collagen was determined by immunostaining.\n(§3) Human cardiac fibroblasts were cultured and maintained until passage 6 in FGM-3 media (Lonza, #CC-3132) in a 37° C. humidified incubator with 5% CO2. They were then seeded in 96-well black wall, clear bottom plates at 10,000 to 15,000 cells per well in eagle's minimum essential media (EMEM, ATCC #30-2003) containing 10% fetal bovine serum (FBS, Life Technologies #10082147), 1% Glutamax (Life Technologies #35050061) and 1% Penicillin and Streptomycin (Life Technologies #15070063). These cultures were placed in 37° C. incubator. The next day, media were removed by aspiration and cells were rinsed with phosphate buffered saline. Crowding media (also called ficoll media) was prepared by adding 112.5 mg/ml of ficoll70 and 75 mg/ml ficoll400 (GE healthcare #17-0310-10 and 17-0300-10, respectively), 100 μM ascorbic acid, 1% Glutamax and 1% Penicillin and Streptomycin to EMEM media. Test compounds (dissolved in DMSO) were diluted into crowding media and then added to the cells. Final concentration of DMSO in crowding media was less than 0.3%. Cells were treated for 24 to 48 hr in a 37° C. incubator. At the end of the treatment period, cell media were collected. The level of PICP in the media were determined by a PICP ELISA assay (Quidel #8003) following the manufacturer's protocol. Potencies of test compounds were calculated by fitting PICP levels, relative to untreated controls, to log (inhibitor) vs. response equation using Graphpad Prism software 5.0 and expressed as pIC50.", "units": {"IC50": "µM"}, "values": [
      {"smiles": "CCCCC[C@H](CN(O)C=O)C(=O)NCNC(=O)c1ccc(-c2cc(OC)cc(OC)c2)o1", "note": "[Example 52, (R)-5-(3,5-dimethoxyphenyl)-N-((2-((N-hydroxyformamido)methyl)heptanamido)methyl)furan-2-carboxamide]", "IC50": "< 3.98"},
      {"smiles": "CCCCC[C@H](CN(O)C=O)C(=O)NCNC(=O)c1ccc(-c2cc(OC)ccc2OC)o1", "note": "[Example 53, (R)-5-(2,5-dimethoxyphenyl)-N-((2-((N-hydroxyformamido)methyl)heptanamido)methyl)furan-2-carboxamide]", "IC50": "< 3.98"},
      {"smiles": "CCCCC[C@H](CN(O)C=O)C(=O)NCNC(=O)c1ccc(-c2cccc(C(=O)O)c2OC)o1", "note": "[Example 55, (R)-3-(5-(((2-((N-hydroxyformamido)methyl)heptanamido)methyl)carbamoyl)furan-2-yl)-2-methoxybenzoic acid]", "IC50": "< 3.98"},
      {"smiles": "CCCCC[C@H](CN(O)C=O)C(=O)NCNC(=O)c1ccc(-c2cccc(C(=O)O)c2F)o1", "note": "[Example 59, (R)-2-fluoro-3-(5-(((2-((N-hydroxyformamido)methyl)heptanamido)methyl)carbamoyl)furan-2-yl)benzoic acid]", "IC50": "< 3.98"},
      {"smiles": "CCCCC[C@H](CN(O)C=O)C(=O)NCNC(=O)c1ccc(-c2cccc(CC(=O)O)c2)o1", "note": "[Example 60, (R)-2-(3-(5-(((2-((N-hydroxyformamido)methyl)heptanamido)methyl)carbamoyl)furan-2-yl)phenyl)acetic acid]", "IC50": "< 3.98"},
      {"smiles": "CCCCC[C@H](CN(O)C=O)C(=O)NCNC(=O)c1ccc(-c2cccc(C(=O)O)c2C)o1", "note": "[Example 61, (R)-3-(5-(((2-((N-hydroxyformamido)methyl)heptanamido)methyl)carbamoyl)furan-2-yl)-2-methylbenzoic acid]", "IC50": "< 3.98"},
      {"smiles": "CCCCC[C@H](CN(O)C=O)C(=O)NCNC(=O)c1ccc(-c2ccc(O)c(C(=O)O)c2)o1", "note": "[Example 62, (R)-2-hydroxy-5-(5-(((2-((N-hydroxyformamido)methyl)heptanamido)methyl)carbamoyl)furan-2-yl)benzoic acid]", "IC50": "< 3.98"},
      {"smiles": "CCCCC[C@H](CN(O)C=O)C(=O)NCNC(=O)c1ccc(-c2ccc(N)c(C(=O)O)c2)o1", "note": "[Example 64, (R)-2-amino-5-(5-(((2-((N-hydroxyformamido)methyl)heptanamido)methyl)carbamoyl)furan-2-yl)benzoic acid]", "IC50": "< 3.98"},
      {"smiles": "CCCCC[C@@H](C(=O)NCNC(=O)c1ccc(-c2cccc(C(C)(C)C(=O)O)c2)o1)[C@@H](CC)N(O)C=O", "note": "[Example 67, 2-(3-(5-((((R)-2-((R)-1-(N-hydroxyformamido)propyl)heptanamido)methyl)carbamoyl)furan-2-yl)phenyl)-2-methylpropanoic acid]", "IC50": "< 3.98"},
      {"smiles": "CCCCC[C@@H](C(=O)NCNC(=O)c1ccc(-c2cc(O)cc(OCC)c2)o1)[C@@H](CC)N(O)C=O", "note": "[Example 73, 5-(3-ethoxy-5-hydroxyphenyl)-N-(((R)-2-((R)-1-(N-hydroxyformamido)propyl)heptanamido)methyl)furan-2-carboxamide]", "IC50": "< 3.98"},
      {"smiles": "CCCCC[C@H](CN(O)C=O)C(=O)NCNC(=O)c1ccc(-c2cccc(C(C)C(=O)O)c2)o1", "note": "(stereo partly drawn) [Example 76, 2-(3-(5-((((R)-2-((N-hydroxyformamido)methyl)heptanamido)methyl)carbamoyl)furan-2-yl)phenyl)propanoic acid]", "IC50": "< 3.98"},
      {"smiles": "CCCCC[C@H](CN(O)C=O)C(=O)NCNC(=O)c1ccc(-c2ccc(F)c(C(=O)O)c2F)o1", "note": "[Example 78]", "IC50": "< 3.98"},
      {"smiles": "CCCCC[C@@H](C(=O)NCNC(=O)c1ccc(-c2cccc(C(=O)N[C@@H](CC(=O)O)C(=O)O)c2)o1)[C@@H](CC)N(O)C=O", "note": "[Example 83, (S)-2-(3-(5-((((R)-2-((R)-1-(N-hydroxy-formamido)propyl)heptamido)methyl)carbamoyl)furan-2-yl)benzamido) succinic acid]", "IC50": "< 3.98"},
      {"smiles": "CCCCC[C@@H](C(=O)NCNC(=O)c1ccc(-c2cc(OCC)cc(C(=O)N[C@H](CC(=O)O)C(=O)O)c2)o1)[C@@H](CC)N(O)C=O", "note": "[Example 84, (R)-2-(3-ethoxy-5-(5-((((R)-2-((R)-1-(N-hydroxy-formamido)propyl)heptanamido)methyl)carbamoyl)furan-2-yl)benzamido) succinic acid]", "IC50": "< 3.98"},
      {"smiles": "CCCCC[C@@H](C(=O)NCNC(=O)c1ccc(-c2cc(OCC)cc(C(=O)NCC(=O)O)c2)o1)[C@@H](CC)N(O)C=O", "note": "[Example 85, 2-(3-ethoxy-5-(5-((((R)-2-((R)-1-(N-hydroxy-formamido)propyl)heptanamido)methyl)carbamoyl)furan-2-yl)benzamido) acetic acid]", "IC50": "< 3.98"},
      {"smiles": "CCCCC[C@@H](C(=O)NCNC(=O)c1ccc(-c2cc(OCC)cc(C(=O)N(CC(=O)O)CC(=O)O)c2)o1)[C@@H](CC)N(O)C=O", "note": "[Example 87, 2,2′-((3-ethoxy-5-(5-((((R)-2-((R)-1-(N-hydroxy-formamido)propyl)heptanamido)methyl)carbamoyl)furan-2-yl)benzoyl)azanediyl) diacetic acid]", "IC50": "< 3.98"},
      {"smiles": "CCCCC[C@@H](C(=O)NCNC(=O)c1ccc(-c2cc(OCC)cc(C(=O)NC(CO)(CO)CO)c2)o1)[C@@H](CC)N(O)C=O", "note": "[Example 88, 5-(3-((1,3-dihydroxy-2-(hydroxymethyl)propan-2-yl)carbamoyl)-5-ethoxyphenyl)-N—(((R)-2-((R)-1-(N-hydroxyformamido)propyl)heptanamido)methyl)furan-2-carboxamide]", "IC50": "< 3.98"},
      {"smiles": "CCCCC[C@H](CN(O)C=O)C(=O)NCNC(=O)c1ccc(-c2cccc(C(=O)O)c2)o1", "note": "[Example 89, (R)-3-(5-(((2-((N-hydroxyformamido)methyl)heptanamido)methyl)carbamoyl)furan-2-yl)benzoic acid]", "IC50": "< 3.98"},
      {"smiles": "CCCCC[C@H](CN(O)C=O)C(=O)NCNC(=O)c1ccc(-c2ccc(F)c(C(=O)O)c2)o1", "note": "[Example 91, (R)-2-fluoro-5-(5-(((2-((N-hydroxy-formamido)methyl)heptanamido)methyl)carbamoyl)furan-2-yl)benzoic acid]", "IC50": "< 3.98"},
      {"smiles": "CCCCC[C@H](CN(O)C=O)C(=O)NCNC(=O)c1ccc(-c2ccc(C(=O)O)cc2)o1", "note": "[Example 92, (R)-4-(5-(((2-((N-hydroxyformamido)methyl)heptanamido)methyl)carbamoyl)furan-2-yl)benzoic acid]", "IC50": "< 3.98"},
      {"smiles": "CCCCC[C@H](CN(O)C=O)C(=O)NCNC(=O)c1ccc(-c2cccc(P(C)(=O)O)c2)o1", "note": "[Example 94, (3-(5-((((R)-2-((N-hydroxyformamido)methyl)heptanamido)methyl)carbamoyl)furan-2-yl)phenyl)(methyl)phosphinic acid]", "IC50": "< 3.98"},
      {"smiles": "CCCCC[C@@H](C(=O)NCNC(=O)C1CCC(c2cc(OCC)cc(P(=O)(O)O)c2)O1)[C@@H](CC)N(O)C=O", "note": "(stereo partly drawn) [Example 97, (3-ethoxy-5-(5-((((R)-2-((R)-1-(N-hydroxyformamido)propyl)heptanamido)methyl)carbamoyl)tetrahydrofuran-2-yl)phenyl)phosphonic acid]", "IC50": "< 3.98"}
    ]},
    {"tested_on": "human cardiac fibroblasts", "assay": "Cell-based inhibition assay of generation of procollagen I C-terminal propeptide (PICP), PICP ELISA", "conditions": "Homo sapiens, Cardiac fibroblast, read-out: pIC50, PICP cellular inhibition assay (converted)", "procedure": "as §1, §2, §3", "units": {"IC50": "µM"}, "values": [
      {"smiles": "CCCCC[C@@H](C(=O)NCNC(=O)c1ccc(-c2cc(OCC)cc(C(=O)NCC[N+](C)(C)C)c2)o1)[C@@H](CC)N(O)C=O", "note": "[Example 65, 2-(3-ethoxy-5-(5-((((R)-2-((R)-1-(N-hydroxyformamido)propyl)heptanamido)methyl)carbamoyl)furan-2-yl)benzamido)-N,N,N-trimethylethanaminium hydroxide]", "IC50": "< 3.98"},
      {"smiles": "CCCCC[C@@H](C(=O)NCNC(=O)c1ccc(-c2ccc(F)c(CC(=O)O)c2)o1)[C@@H](CC)N(O)C=O", "note": "[Example 70, 2-(2-fluoro-5-(5-((((R)-2-((R)-1-(N-hydroxyformamido)propyl)heptanamido)methyl)carbamoyl)furan-2-yl)phenyl)acetic acid]", "IC50": "< 3.98"},
      {"smiles": "CCCCC[C@@H](C(=O)NCNC(=O)c1ccc(-c2ccc(C(=O)O)cc2)o1)[C@@H](CC)N(O)C=O", "note": "[Example 71, 4-(5-((((R)-2-((R)-1-(N-hydroxyformamido)propyl)heptanamido)methyl)carbamoyl)furan-2-yl)benzoic acid]", "IC50": "< 3.98"},
      {"smiles": "CCCCC[C@@H](C(=O)NCNC(=O)c1ccc(-c2cc(CC(=O)O)cc(OCC)c2)o1)[C@@H](CC)N(O)C=O", "note": "[Example 72, 2-(3-ethoxy-5-(5-((((R)-2-((R)-1-(N-hydroxyformamido)propyl)heptanamido)methyl)carbamoyl)furan-2-yl)phenyl)acetic acid]", "IC50": "< 3.98"},
      {"smiles": "CCCCC[C@H](CN(O)C=O)C(=O)NCNC(=O)c1ccc(-c2cccc(P(=O)(O)OC)c2)o1", "note": "[Example 95, methyl hydrogen (3-(5-((((R)-2-((N-hydroxyformamido)methyl)heptanamido)methyl)carbamoyl)furan-2-yl)phenyl)phosphonate]", "IC50": "< 3.98"}
    ]}
  ]
}
